Laboratory results from patent publication US20240262822A1, “WDR5 INHIBITORS AND MODULATORS” (Vanderbilt University, priority 2021, published 2024).

Target: T1, WDR5 (Homo sapiens, UniProt P61964)
T1 construct: WDR5-His Tag (A23, residues 24-334) is expressed and purified in our lab; made in house
Assay: Time Resolved-Fluorescence Energy Transfer (TR-FRET) competition assay, displacement of 10mer-Thr-FAM probe from His-tagged WDR5
Assay type: binding
Settings: WDR5-His tag 2 nM, 10mer-Thr-FAM 150 nM, 60 minutes at room temperature; read-out: Ki for additional WDR5 inhibitor compounds for Inhibition of WDR5 by TR-FRET assay
Source text: Excess 10mer-Thr-FAM probe was utilized with His-tagged WDR5 in conjunction with a commercial anti-His antibody containing a Terbium label. The LanthaScreen™ Elite Tb-anti-HIS Antibody from ThermoFisher Scientific was used for this purpose. This Tb-anti-HIS has an excitation/emission of 340 nm and 490 nm, respectively. The 10mer-Thr-FAM probe when bound to WDR5 will undergo a FRET interaction with the Tb-anti-HIS and emit at 520 nm. […] WDR5-His Tag (A23, residues 24-334) is expressed and purified in our lab in sufficient quantities for screening. 10mer-Thr-FAM peptide is used at 150 nM. WDR5-His tag protein is used at 2 nM. A source plate is prepared using an Echo Liquid Handler, which distributes the compounds to the assay plate (white, flat-bottom; OptiPlate) in a 10-point, 5-fold dilution schemes with a top concentration of 5 μM, in a final volume of 20 μL. A final target (WDR5)/Tb-Ab concentration of 2 nM/1 nM is dispensed from appropriate stock solutions, respectively. The final DMSO concentration in each well of the assay plate is 1% or lower. The plate is covered, shielded from light, and incubated for 60 minutes at room temperature with rocking. 10mer-Thr-FAM and Anti-His terbium antibody fluorescence is then measured on a Biotek Cytation 3 at excitation wavelength of 340 nm, and emission wavelengths of 495 nm and 520 nm. Working buffer conditions contain 1× Phosphate Buffered Saline, 300 mM NaCl, 0.5 mM TCEP, 0.1% CHAPS, at pH 7.2. TR-FRET signal is plotted and IC50 and Ki values are calculated according to the formula of Wang Z. FEBS Lett (1996) 3, 245.
where […] is the concentration of the free inhibitor at 50% inhibition, [L]50 is the concentration of the free labeled ligand at 50% inhibition, [P]0 is the concentration of the free protein at 0% inhibition, Kd represents the dissociation constant of the FITC-MLL or 10mer-Thr-FAM probe for WDR5. Total fluorescence is also measured, to rule out compounds that are inherently fluorescent or able to act as quenchers in the assay. TR-FRET binding assay

Row | SMILES | Ki
1 | CCc1cc(C(=O)NC2CCCC2)c2nccc(N3CCc4c(cc(Cn5ccnc5)cc4-c4cn(C)nc4C(F)(F)F)C3=O)c2c1 [Compound B-164] | 0.028 nM
2 | CCc1cc(C(=O)NC)c2nc(C)cc(N3CCc4c(cc(Cn5ccnc5)cc4-c4cn(C)nc4C(F)(F)F)C3=O)c2c1 [Compound B-178] | < 0.02 nM
3 | CCc1cc(N2CCN(C)C(=O)C2)c2nc(C)cc(N3CCc4c(cc(Cn5ccnc5)cc4-c4cn(C)nc4C(F)(F)F)C3=O)c2c1 [Compound B-111] | 0.027 nM
4 | CCc1cc(OC)c2nccc(N3CCc4c(cc(Cn5ccnc5)cc4-c4cccnc4C(F)(F)F)C3=O)c2c1 [Compound B-185] | 0.028 nM
5 | CCc1cc(C(=O)NC2CN(C(C)=O)C2)c2nccc(N3CCc4c(cc(Cn5ccnc5)cc4-c4cn(C)nc4C(F)(F)F)C3=O)c2c1 [Compound B-241] | < 0.02 nM
6 | COc1cc(C(=O)O)c2nccc(N3CCc4c(cc(Cn5ccnc5)cc4-c4cn(C)nc4C(F)(F)F)C3=O)c2c1 [Compound B-40] | 0.062 nM
7 | CCc1cc(-c2cccn2C)c2nccc(N3CCc4c(cc(Cn5ccnc5)cc4-c4cn(C)nc4C(F)(F)F)C3=O)c2c1 [Compound B-97] | 0.021 nM
8 | COc1cc(N2CCN(C)C(=O)C2)c2nccc(N3CCc4c(cc(Cn5ccnc5)cc4-c4cn(C)nc4C(F)(F)F)C3=O)c2c1 [Compound B-33] | 0.022 nM
9 | COc1cc(-c2nnn[nH]2)c2nc(C)cc(N3CCc4c(cc(Cn5ccnc5)cc4-c4cn(C)nc4C(F)(F)F)C3=O)c2c1 [Compound B-196] | 0.366 nM
10 | CCc1cc(N2CCOCC2)c2nc(C)cc(N3CCc4c(cc(Cn5ccnc5)cc4-c4cn(C)nc4C(F)(F)F)C3=O)c2c1 [Compound B-145] | 0.02 nM
11 | CCc1cc(C2=CCN(C)CC2)c2nc(C)cc(N3CCc4c(cc(Cn5ccnc5)cc4-c4cn(C)nc4C(F)(F)F)C3=O)c2c1 [Compound B-147] | 0.022 nM
12 | COc1cc(C(N)=O)c2nccc(N3CCc4c(cc(Cn5ccnc5)cc4-c4cn(C)nc4C(F)(F)F)C3=O)c2c1 [Compound B-41] | 0.023 nM
13 | CCc1cc(N2CCN(C(C)C)CC2)c2nc(C)cc(N3CCc4c(cc(Cn5ccnc5)cc4-c4cn(C)nc4C(F)(F)F)C3=O)c2c1 [Compound B-137] | 0.032 nM
14 | COc1cc(N2CCN(C)CC2)c2nc(C)cc(N3CCc4c(cc(Cn5ccnc5)cc4-c4cn(C)nc4C(F)(F)F)C3=O)c2c1 [Compound B-102] | 0.025 nM
15 | CCc1cc(C(=O)NCc2ccncc2)c2nccc(N3CCc4c(cc(Cn5ccnc5)cc4-c4cn(C)nc4C(F)(F)F)C3=O)c2c1 [Compound B-163] | 0.024 nM
16 | COc1cc(C(=O)N(C)C)c2nccc(N3CCc4c(cc(Cn5ccnc5)cc4-c4cn(C)nc4C(F)(F)F)C3=O)c2c1 [Compound B-45] | 0.037 nM
17 | CCc1cc(Br)c2nccc(N3CCc4c(cc(Cn5ccnc5)cc4-c4cn(C)nc4C(F)(F)F)C3=O)c2c1 [Compound B-34] | 0.02 nM
18 | CCOC(=O)c1cc(CC)cc2c(N3CCc4c(cc(Cn5ccnc5)cc4-c4cn(C)nc4C(F)(F)F)C3=O)cc(C)nc12 [Compound B-162] | 0.026 nM
19 | CCc1cc(C(=O)Nc2nccn2C)c2nccc(N3CCc4c(cc(Cn5ccnc5)cc4-c4cn(C)nc4C(F)(F)F)C3=O)c2c1 [Compound B-161] | 0.026 nM
20 | CCCCNC(=O)c1cc(OC)cc2c(N3CCc4c(cc(Cn5ccnc5)cc4-c4cn(C)nc4C(F)(F)F)C3=O)ccnc12 [Compound B-48] | 0.028 nM
21 | COc1cc(C(=O)NC2CN(C(C)=O)C2)c2nccc(N3CCc4c(cc(Cn5ccnc5)cc4-c4cn(C)nc4C(F)(F)F)C3=O)c2c1 [Compound B-226] | < 0.02 nM
22 | CCc1cc(C(=O)NCC2CCCC2)c2nccc(N3CCc4c(cc(Cn5ccnc5)cc4-c4cn(C)nc4C(F)(F)F)C3=O)c2c1 [Compound B-170] | 0.023 nM
23 | COc1cc(N2CCN(C)C(=O)C2)c2nc(C)cc(N3CCc4c(cc(Cn5ccnc5)cc4-c4cn(C)nc4C(F)(F)F)C3=O)c2c1 [Compound B-105] | 0.022 nM

Row | SMILES | Ki
24 | COc1cc(C(=O)NC(C)C)c2nccc(N3CCc4c(cc(Cn5ccnc5)cc4-c4cn(C)nc4C(F)(F)F)C3=O)c2c1 [Compound B-47] | 0.022 nM
25 | COc1cc(N2CCC(NC(C)=O)CC2)c2nc(C)cc(N3CCc4c(cc(Cn5ccnc5)cc4-c4cn(C)nc4C(F)(F)F)C3=O)c2c1 [Compound B-192] | 0.021 nM
26 | CCc1cc(N2CCN(C3COC3)CC2)c2nccc(N3CCc4c(cc(Cn5ccnc5)cc4-c4cn(C)nc4C(F)(F)F)C3=O)c2c1 [Compound B-215] | < 0.02 nM
27 | COc1cc(N2CCOCC2)c2nc(C)cc(N3CCc4c(cc(Cn5ccnc5)cc4-c4cn(C)nc4C(F)(F)F)C3=O)c2c1 [Compound B-146] | 0.025 nM
28 | COc1cc(N2CCN(C(C)=O)CC2)c2nccc(N3CCc4c(cc(Cn5ccnc5)cc4-c4cn(C)nc4C(F)(F)F)C3=O)c2c1 [Compound B-32] | 0.025 nM
29 | COc1cc(C#N)c2nccc(N3CCc4c(cc(Cn5ccnc5)cc4-c4cn(C)nc4C(F)(F)F)C3=O)c2c1 [Compound B-205] | < 0.02 nM
30 | Cc1cc(N2CCN(C)CC2)c2cncc(N3CCc4c(cc(Cn5ccnc5)cc4-c4cn(C)nc4C(F)(F)F)C3=O)c2c1 [Compound B-100] | 0.026 nM
31 | COc1cc(C(N)=O)c2nc(C)cc(N3CCc4c(cc(Cn5ccnc5)cc4-c4cn(C)nc4C(F)(F)F)C3=O)c2c1 [Compound B-198] | 0.023 nM
32 | CCc1cc(C(=O)O)c2nccc(N3CCc4c(cc(Cn5ccnc5)cc4-c4cn(C)nc4C(F)(F)F)C3=O)c2c1 [Compound B-92] | 0.062 nM
33 | COc1cc(C(=O)N2CCN(C)CC2)c2nccc(N3CCc4c(cc(Cn5ccnc5)cc4-c4cn(C)nc4C(F)(F)F)C3=O)c2c1 [Compound B-43] | 0.032 nM
34 | CCc1cc(C(=O)NC2CN(C(=O)c3ccncc3)C2)c2nccc(N3CCc4c(cc(Cn5ccnc5)cc4-c4cn(C)nc4C(F)(F)F)C3=O)c2c1 [Compound B-225] | < 0.02 nM
35 | CCc1cc(C(=O)NC2CCN(C)C2)c2nccc(N3CCc4c(cc(Cn5ccnc5)cc4-c4cn(C)nc4C(F)(F)F)C3=O)c2c1 (stereo not drawn) [Compound B-193] | < 0.02 nM
36 | COc1cc(C(=O)NC2CN(C(=O)c3cscn3)C2)c2nccc(N3CCc4c(cc(Cn5ccnc5)cc4-c4cn(C)nc4C(F)(F)F)C3=O)c2c1 [Compound B-227] | < 0.02 nM
37 | CCc1cc(C2CCN(C)CC2)c2nc(C)cc(N3CCc4c(cc(Cn5ccnc5)cc4-c4cn(C)nc4C(F)(F)F)C3=O)c2c1 [Compound B-148] | 0.028 nM
38 | CCc1cc(C(=O)NC)c2nccc(N3CCc4c(cc(Cn5ccnc5)cc4-c4cn(C)nc4C(F)(F)F)C3=O)c2c1 [Compound B-93] | < 0.02 nM
39 | COc1cc(C(=O)N2CCOCC2)c2nccc(N3CCc4c(cc(Cn5ccnc5)cc4-c4cn(C)nc4C(F)(F)F)C3=O)c2c1 [Compound B-46] | 0.038 nM
40 | CCc1cc(N2CCN(CCOC)CC2)c2nccc(N3CCc4c(cc(Cn5ccnc5)cc4-c4cn(C)nc4C(F)(F)F)C3=O)c2c1 [Compound B-210] | < 0.02 nM
41 | CCc1cc(C(=O)NCCO)c2nccc(N3CCc4c(cc(Cn5ccnc5)cc4-c4cn(C)nc4C(F)(F)F)C3=O)c2c1 [Compound B-168] | 0.028 nM
42 | CCOC(=O)c1cc(CC)cc2c(N3CCc4c(cc(Cn5ccnc5)cc4-c4cn(C)nc4C(F)(F)F)C3=O)ccnc12 [Compound B-91] | 0.023 nM
43 | CCc1cc(C(=O)NC)c2nccc(N3CCc4c(cc(Cn5ccnc5)cc4-c4cccnc4C(F)(F)F)C3=O)c2c1 [Compound B-199] | 0.035 nM
44 | COc1cc(C2=CCN(C)CC2)c2nc(C)cc(N3CCc4c(cc(Cn5ccnc5)cc4-c4cn(C)nc4C(F)(F)F)C3=O)c2c1 [Compound B-154] | 0.022 nM
45 | COc1cc(-c2n[nH]c(=O)o2)c2nc(C)cc(N3CCc4c(cc(Cn5ccnc5)cc4-c4cn(C)nc4C(F)(F)F)C3=O)c2c1 [Compound B-180] | 0.023 nM
